In publication PMC6529454, “Development of human cGAS-specific small-molecule inhibitors for repression of dsDNA-triggered interferon expression” (Nature Communications, 2019):
Like-named read-outs stand apart in the source and are kept apart here.

Tests used:
45-bp dsDNA = assay: dsDNA intercalation fluorescence polarization assay (acridine orange); assay type: binding; settings: for Polarization: compound at 30 µM
h-cGAS [1] = target: T1, h-cGAS (Homo sapiens, UniProt Q8N884); assay: RapidFire mass spectrometry (RF-MS) cGAS activity assay, h-cGAS
T1 sequence (Q8N884 whole entry): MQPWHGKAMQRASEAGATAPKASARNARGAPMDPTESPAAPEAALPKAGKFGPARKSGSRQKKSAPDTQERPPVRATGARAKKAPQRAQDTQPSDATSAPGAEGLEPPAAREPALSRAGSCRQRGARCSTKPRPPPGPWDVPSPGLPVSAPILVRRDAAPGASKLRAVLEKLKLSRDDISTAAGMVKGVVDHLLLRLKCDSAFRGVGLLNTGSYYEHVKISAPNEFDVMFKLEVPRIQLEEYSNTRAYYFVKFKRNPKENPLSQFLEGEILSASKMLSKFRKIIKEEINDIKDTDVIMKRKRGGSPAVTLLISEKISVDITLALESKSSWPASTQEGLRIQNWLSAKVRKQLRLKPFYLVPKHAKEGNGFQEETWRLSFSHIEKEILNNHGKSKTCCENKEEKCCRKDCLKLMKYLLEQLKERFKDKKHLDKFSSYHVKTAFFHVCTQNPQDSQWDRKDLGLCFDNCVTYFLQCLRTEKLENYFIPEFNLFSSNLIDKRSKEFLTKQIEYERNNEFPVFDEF

m-cGAS = m-cGAS (Mus musculus, UniProt Q8C6L5); assay: RapidFire mass spectrometry (RF-MS) cGAS activity assay, m-cGAS
Chain of m-cGAS (Q8C6L5 whole entry): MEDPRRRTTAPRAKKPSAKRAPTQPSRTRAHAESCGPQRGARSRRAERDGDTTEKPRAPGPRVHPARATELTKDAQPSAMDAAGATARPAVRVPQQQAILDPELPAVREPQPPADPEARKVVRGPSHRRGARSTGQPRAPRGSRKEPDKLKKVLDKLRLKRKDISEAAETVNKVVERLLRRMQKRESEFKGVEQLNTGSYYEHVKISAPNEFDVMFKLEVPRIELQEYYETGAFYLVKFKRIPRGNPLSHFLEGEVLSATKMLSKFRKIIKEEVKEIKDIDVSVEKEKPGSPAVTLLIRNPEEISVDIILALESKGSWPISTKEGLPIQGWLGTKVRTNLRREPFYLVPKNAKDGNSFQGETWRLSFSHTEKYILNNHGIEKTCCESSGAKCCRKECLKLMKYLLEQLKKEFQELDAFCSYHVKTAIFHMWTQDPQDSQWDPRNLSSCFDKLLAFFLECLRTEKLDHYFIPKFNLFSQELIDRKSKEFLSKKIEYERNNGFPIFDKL

h-cGAS [2] = target: T1, h-cGAS; assay: ATP-coupled luminescence (LUM, Kinase-Glo) high-throughput assay, h-cGAS; assay type: biochemical; design: His6-SUMO (N, cleaved yes); made in house; host or cells: E. coli BL21-CodonPlus(DE3)-RIL
cGAS in THP1 cells = assay: dsDNA-stimulated mRNA induction (qRT-PCR) in THP1 cells; assay type: cell-based, human
[3] = h-cGAS IC50, RF-MS, freshly sourced vendor powder
[4] = m-cGAS IC50, RF-MS, freshly sourced vendor powder
[5] = library stock, ten half-dilutions from 25 µM, read-out: h-cGAS IC50 (LUM)
[6] = IC50 h-cGAS, RF-MS, in-house synthesized compounds
[7] = IC50 m-cGAS, RF-MS, in-house synthesized compounds

| SMILES | % Intercalation at 30 µM (45-bp dsDNA) [%] | Polarization (45-bp dsDNA) [mP] | IC50 (h-cGAS [1]; [3]) [µM] | IC50 (m-cGAS; [4]) [µM] | IC50 (h-cGAS [2]; [5]) [µM] | IC50 (h-cGAS [1]; [6]) [µM] | IC50 (m-cGAS; [7]) [µM] | inhibition of IFNB1 mRNA induction in human THP1 cells (in words) (cGAS in THP1 cells) | IC50 (h-cGAS [1]) [µM] | IC50 (m-cGAS) [µM] | IC50 (h-cGAS [2]) [µM] |
| --- | --- | --- | --- | --- | --- | --- | --- | --- | --- | --- | --- |
| O=c1c(/C=N\C2CC2)c(-c2ccccc2)[nH]n1-c1nc2ccccc2s1 [RU-0166710_AA-001] | -5.01 | 252 | 5.27 | > 50 | 7.69 | – | – | – | – | – | – |
| O=C(O)Cc1cc(I)c(Oc2cc(I)c(O)c(I)c2)c(I)c1 [RU-0001026_AA-001] | -15.3 | 274 | 11.9 | 29.2 | 6.16 | – | – | – | – | – | – |
| CCC/N=C\c1c(-c2ccccc2)[nH]n(-c2nc3ccccc3s2)c1=O [RU-0166755_AA-001] | -3.39 | 249 | 12.8 | > 50 | 7.29 | – | – | – | – | – | – |
| N#Cc1c(C(F)(F)F)cc(=O)n2c1[nH]c1ccccc12 [RU-0006086_AA-001] | -13.31 | 268 | 1.05 | 17.9 | 0.128 | – | – | – | – | – | – |
| CCC(=O)Nc1sc2c(c1-c1nc3ccccc3s1)CCN(CC)C2 [RU-0131894_AQ-001] | 40.34 | 159 | 0.965 | 7.51 | 1.09 | – | – | – | – | – | – |
| O=C(Nc1ncccc1O)c1nc(-c2ccccc2)n2c1CCCCC2 [RU-0208404_AA-001] | -4.67 | 252 | 13.7 | > 50 | 2.48 | – | – | – | – | – | – |
| Cc1c2c(nc3cc4c(cc13)OCO4)CCc1ccccc1-2 [RU-0093754_AQ-001] | -2.1 | 247 | 23.1 | > 50 | 9.35 | – | – | – | – | – | – |
| O=c1[nH]c2c(Cl)c(Cl)c(Cl)cc2o1 [RU-0002019_AA-001] | -9.27 | 260 | 8.1 | 11.6 | 3.9 | – | – | – | – | – | – |
| Oc1ccccc1C1=NNC2(CC3CC2C2CCCC32)S1 (stereo not shown) [RU-0182153_AA-001] | -11.48 | 266 | 33.1 | > 50 | 4.8 | – | – | – | – | – | – |
| O=C(Nc1ccc(Cl)cn1)c1[nH]ncc1[N+](=O)[O-] [J001] | -7.59 | 258 | 0.976 | 0.972 | 0.913 | 1.04 | 0.49 | – | – | – | – |
| COC(=O)C1=NN2C(=NS(=O)(=O)c3ccccc32)N1 [RU-0209189_AA-001] | -6.61 | 256 | 3.04 | 3.93 | 6.64 | – | – | – | – | – | – |
| O=C(O)CN1C(=O)/C(=C\c2cc([N+](=O)[O-])cc(Br)c2O)SC1=S [RU-0010201_AA-001] | -18.01 | 278 | 3.02 | 5.77 | 1.55 | – | – | – | – | – | – |
| Cc1ccc(-n2[nH]c(C(=O)Nc3ccnc4ccnn34)cc2=O)cc1 [RU-0208705_AA-001] | -20.07 | 283 | 7.82 | > 50 | 2.72 | – | – | – | – | – | – |
| N#CC(C(=O)/C=C/c1nccs1)C(=O)Nc1cccc(Cl)c1Cl (stereo not shown) [RU-0183726_AA-001] | -6.77 | 256 | 4.63 | 17.3 | 7.46 | – | – | – | – | – | – |
| Oc1cccc2ccc(Nc3ccccn3)nc12 [RU-0010562_AA-001] | 10.31 | 220 | 13.2 | > 50 | 9.1 | – | – | – | – | – | – |
| NC(=O)n1c(O)c(C(=O)c2cccs2)c2cc(Cl)ccc21 [RU-0187170_AA-001] | -15.37 | 274 | 1.31 | 21.5 | 1.38 | – | – | – | – | – | – |
| N=C1/C(=C/c2ccc(O)cc2)C(=O)N=C2SC(c3ccccc3Cl)=NN12 [RU-0169289_AA-001] | -14.25 | 271 | 5.18 | 14.9 | 9.95 | – | – | – | – | – | – |
| S=c1[nH]nc(-c2sc3ccccc3c2Cl)o1 [RU-0003433_AA-002] | -16.75 | 277 | 7.16 | 16.1 | 8.68 | – | – | – | – | – | – |
| O=C(CO)N1CCc2[nH]c3c(Cl)c(Br)ccc3c2C1 [G086] | – | – | – | – | – | – | – | did not inhibit | – | – | – |
| COCc1nn2c(=O)cc(Cc3ccccc3)[nH]c2c1-c1ccccc1 [RU-0171678_AA-001] | -2.74 | 248 | > 50 | > 50 | 1.37 | – | – | – | – | – | – |
| O=C(Nc1cc(-c2ccccc2)ccn1)c1nnc[nH]1 [J073] | – | – | – | – | – | – | 4.32 | – | – | – | – |
| CSC(=S)N/N=C(\c1ccccc1)c1ccccn1 [RU-0172034_AA-001] | -10.03 | 263 | 7.02 | > 50 | 4.69 | – | – | – | – | – | – |
| Clc1ccc2c(-n3ccnc3)ccnc2c1 [RU-0166197_AA-001] | -4.04 | 250 | – | – | – | – | – | – | 2.64 | 10.8 | 6.49 |
| O=c1cc(Cc2ccccc2)[nH]c2c(-c3ccccc3)c(C(F)(F)F)nn12 [RU-0168658_AA-001] | -8.74 | 260 | 1.13 | > 50 | 1.63 | – | – | – | – | – | – |
| FC(F)(F)c1nc2cc(Cl)cc(Cl)c2[nH]1 [RU-0005637_AA-001] | -3.44 | 248 | 2.39 | > 50 | 3.38 | – | – | – | – | – | – |
| COCC(=O)N1CCc2[nH]c3c(Cl)cc(Cl)cc3c2C1 [G001] | -6.09 | 258 | 2.75 | 1.14 | – | 2.08 | 0.44 | – | – | – | 1.2 |
| O=C1NC(=S)S/C1=C\c1ccc(-c2ccccc2C(=O)O)o1 [RU-0020238_AA-001] | -24.96 | 292 | 3.78 | 9.65 | 3.59 | – | – | – | – | – | – |
| CNC(=O)CSc1nc(=O)n2nc(C)c(-c3ccccc3)c2[nH]1 [RU-0142869_AA-001] | -8.43 | 260 | 4.78 | > 50 | 9.12 | – | – | – | – | – | – |
| Cc1ccc2c(=O)c3ccccc3n(CCCN)c2c1C [RU-0187094_AT-001] | 45.76 | 148 | 1.61 | 10.3 | 2.59 | – | – | – | – | – | – |
| O=C(CO)N1CCc2[nH]c3c(F)c(Br)ccc3c2C1 [G092] | – | – | – | – | – | – | – | did not inhibit | – | – | – |
